Measured values published in publication PMC6690782 (Bioorganic & medicinal chemistry letters, 2019).

What was measured:
LAT1 = LAT1 (Homo sapiens, UniProt Q01650); assay: cis-inhibition assay: inhibition of [3H]-gabapentin uptake into HEK-hLAT1 cells; assay type: cell-based; conditions: for fold decrease in potency relative to corresponding histidine/tryptophan analog: cis-inhibition IC50, 7d vs 16, 13 vs 22
[1] = cited from earlier work

Sequence of LAT1 (Q01650 whole entry): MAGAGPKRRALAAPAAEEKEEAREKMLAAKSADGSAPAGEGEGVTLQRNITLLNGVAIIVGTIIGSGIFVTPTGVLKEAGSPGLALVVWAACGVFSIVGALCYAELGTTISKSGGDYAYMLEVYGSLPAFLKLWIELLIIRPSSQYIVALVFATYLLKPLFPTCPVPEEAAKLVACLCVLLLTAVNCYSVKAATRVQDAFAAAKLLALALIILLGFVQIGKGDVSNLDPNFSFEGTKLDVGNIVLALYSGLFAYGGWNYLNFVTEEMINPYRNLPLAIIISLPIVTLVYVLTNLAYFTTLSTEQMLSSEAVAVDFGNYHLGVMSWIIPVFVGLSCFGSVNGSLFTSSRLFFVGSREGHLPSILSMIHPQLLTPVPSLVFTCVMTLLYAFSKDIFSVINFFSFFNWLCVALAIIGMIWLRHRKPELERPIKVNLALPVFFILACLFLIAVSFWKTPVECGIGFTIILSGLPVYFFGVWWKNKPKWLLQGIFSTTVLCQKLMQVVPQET
Sequence of LAT1 (P08195 102-630 partner): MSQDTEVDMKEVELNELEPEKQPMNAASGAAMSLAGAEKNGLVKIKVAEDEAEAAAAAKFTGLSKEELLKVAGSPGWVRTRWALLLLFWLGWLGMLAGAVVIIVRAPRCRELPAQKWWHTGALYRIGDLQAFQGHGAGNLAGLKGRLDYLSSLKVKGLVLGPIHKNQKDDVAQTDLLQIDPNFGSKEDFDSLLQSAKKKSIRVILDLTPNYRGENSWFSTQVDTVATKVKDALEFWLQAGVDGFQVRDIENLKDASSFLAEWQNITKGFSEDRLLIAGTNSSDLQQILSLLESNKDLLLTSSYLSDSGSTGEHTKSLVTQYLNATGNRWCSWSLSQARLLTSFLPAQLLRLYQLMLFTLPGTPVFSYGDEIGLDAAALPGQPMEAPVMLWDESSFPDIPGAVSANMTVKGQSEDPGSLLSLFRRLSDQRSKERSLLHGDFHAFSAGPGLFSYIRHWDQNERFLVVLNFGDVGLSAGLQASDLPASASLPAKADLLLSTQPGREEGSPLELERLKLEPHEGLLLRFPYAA

Structure (SMILES) | inhibition at 200 µM (LAT1) | fold decrease in potency relative to corresponding histidine/tryptophan analog (LAT1) | other results
N[C@@H](Cc1cn(Cc2ccccc2)cn1)C(=O)O [Compound 17, reference compound] | 74% |  | 
N[C@@H](Cc1cn(Cc2ccccc2)nn1)C(=O)O [Compound 11e] | -19% |  | 
c1c[nH]nn1 [1,2,3-triazole] |  |  | pKa of conjugate acid [1]: 1.15

Second part, led by results:

inhibition at 200 µM (LAT1) | fold decrease in potency relative to corresponding histidine/tryptophan analog (LAT1) | Structure (SMILES) | other results
 | 2 fold | Cc1cn(C[C@H](N)C(=O)O)nn1 [Compound 7d] | 
 | 2 fold | N[C@@H](Cn1nnc2ccccc21)C(=O)O [Compound 13] | 
